Experimental data: ChEMBL document CHEMBL6153135, “Rational Design of a Potent, Selective, and Metabolically Stable CDK9 Inhibitor to Counteract Osimertinib Resistance through Mcl-1 Suppression and Enhanced BRD4 Co-Targeting” (J Med Chem, 2025)
The source made the active and inactive calls. The calls are words filed in the database; no cut-off is given here.

Key:
[1] = test system: NCI-H1975; assay: Antitumor activity against human NCI-H1975 cells xenografted in BALB-c nude mouse assessed as reduction in Ki-67 expression at 15 mg/kg, iv administered on every two days by IHC analysis; assay type: functional, organism-based
[2] = test system: Osimertinib-resistant HCC827 cell; assay: Inhibition of homologous recombination repair in human Osimertinib-resistant HCC827 cells by KEGG analysis; assay type: functional, cell-based
[3] = test system: HCC827; assay: Selectivity ratio of IC50 for anti-proliferative activity against human HCC827 cells to IC50 for anti-proliferative activity against human HCC827 cells in presence of JQ1; assay type: functional
[4] = test system: HCC827; assay: Anti-proliferative activity against human HCC827 cells assessed as cell inhibition measured after 72 hrs in presence of 100 nM JQ1 by MTT assay; assay type: functional, cell-based; details: HCC827, 72 h
[5] = Metabolic stability in human liver S9 fraction assessed as clearance measured for 5 to 60 mins by LC-MS/MS analysis; assay type: ADME, subcellular; details: time 5-60 min, read-out: CLH
[6] = AUC (0 to infinity) in BALB/c mouse at 15 mg/kg, po; assay type: ADME, organism-based; details: in vivo
[7] = Toxicity in BALB-c nude mouse xenografted with human NCI-H1975 cells assessed as pathological damage in spleen at 15 mg/kg, iv administered on every two days by H and E staining based analysis; assay type: organism-based; details: in vivo
[8] = test system: NCI-H1975; assay: Anti-proliferative activity against human NCI-H1975 cells assessed as cell inhibition measured after 72 hrs in presence of 250 nM JQ1 by MTT assay; assay type: functional, cell-based; details: NCI-H1975, 72 h
[9] = AUC (0 to t) in BALB/c mouse at 2 mg/kg, iv; assay type: ADME, organism-based; details: in vivo
[10] = test system: NCI-H1975; assay: Antitumor activity against human NCI-H1975 cells xenografted in BALB-c nude mouse assessed as tumor growth inhibition at 5 mg/kg, iv in presence of JQ1 relative to control; assay type: functional; details: read-out: TGI
[11] = target: Cyclin-dependent kinase 9 (Homo sapiens) (UniProt P50750); assay: Inhibition of CDK9 in human Osimertinib-resistant HCC827 cells assessed as decrease in Mcl-1 mRNA level in presence of JQ1 by RNA-Seq analysis; assay type: cell-based; details: Osimertinib-resistant HCC827 cell
[12] = target: CDK2/Cyclin A2 (Homo sapiens) (UniProt P24941+P20248); assay: Inhibition of CDK2/Cyclin A2 (unknown origin) at 100 nM preincubated for 10 mins followed by substrate/ATP measured after 60 mins by ADP-Glo assay relative to control; assay type: protein-complex assay; details: time 70.0 min
[13] = Half life in BALB/c mouse at 15 mg/kg, po; assay type: ADME, organism-based; details: in vivo
[14] = target: CDK9/cyclin T1 (Homo sapiens) (UniProt O60563+P50750); assay: Inhibition of CDK9/cyclin T1 (unknown origin) at 100 nM preincubated for 10 mins followed by substrate/ATP measured after 60 mins by ADP-Glo assay relative to control; assay type: protein-complex assay; details: time 70.0 min
[15] = target: Cyclin-dependent kinase 9 (Homo sapiens) (UniProt P50750); assay: Inhibition of CDK9 in human Osimertinib-resistant NCI-H1975 cells assessed as decrease in p-RNAPII-ser2 level incubated for 12 hrs by Western blot analysis; assay type: cell-based; details: Osimertinib-resistant NCI-H1975 cell, dose 50-500 nM
[16] = Apparent volume of distribution in BALB/c mouse at 15 mg/kg, po; assay type: ADME, organism-based; details: in vivo
[17] = Half life in Sprague-Dawley rat at 20 mg/kg, po; assay type: ADME, organism-based; details: in vivo
[18] = test system: NCI-H1299; assay: Anti-proliferative activity against human NCI-H1299 cells assessed as cell inhibition measured after 72 hrs by MTT assay; assay type: functional, cell-based; details: NCI-H1299, 72 h
[19] = Oral bioavailability in BALB/c mouse at 15 mg/kg; assay type: ADME, organism-based; details: in vivo
[20] = target: Cyclin-dependent kinase 9 (Homo sapiens) (UniProt P50750); assay: Inhibition of CDK9 in human Osimertinib-resistant HCC827 cells assessed as decrease in Mcl-1 mRNA level by RNA-Seq analysis; assay type: cell-based; details: Osimertinib-resistant HCC827 cell
[21] = test system: NCI-H1975; assay: Anti-proliferative activity against human NCI-H1975 cells assessed as cell inhibition measured after 72 hrs in presence of 500 nM JQ1 by MTT assay; assay type: functional, cell-based; details: NCI-H1975, 72 h
[22] = Toxicity in BALB-c mouse xenografted with human Osimertinib-resistant HCC827 cells assessed as decrease in body weight at 5 mg/kg, iv; assay type: organism-based; details: in vivo
[23] = test system: PC-9; assay: Anti-proliferative activity against human PC-9 cells assessed as cell inhibition measured after 72 hrs by MTT assay; assay type: functional, cell-based; details: PC-9, 72 h
[24] = test system: NCI-H596; assay: Anti-proliferative activity against human NCI-H596 cells assessed as cell inhibition measured after 72 hrs by MTT assay; assay type: functional, cell-based; details: NCI-H596, 72 h
[25] = Metabolic stability in dog liver microsomes assessed as clearance measured for 5 to 60 mins by LC-MS/MS analysis; assay type: ADME, Canis lupus familiaris, Microsome; details: time 5-60 min, read-out: CLH
[26] = Anti-proliferative activity against human Osimertinib-resistant HCC827 cells assessed as cell inhibition measured after 72 hrs in presence of 100 nM JQ1 by MTT assay; assay type: functional, cell-based
[27] = test system: Lung adenocarcinoma organoid; assay: Anti-tumor activity against patient (#2223)-derived human Lung adenocarcinoma organoid assessed as inhibition of cell viability measured after 96 hrs; assay type: functional, tissue-based; details: Neoplasm
[28] = Metabolic stability in monkey liver microsomes assessed as half life measured for 5 to 60 mins by LC-MS/MS analysis; assay type: ADME, Macaca mulatta, Microsome; details: rhesus monkey, time 5-60 min
[29] = Half life in Sprague-Dawley rat at 2 mg/kg, iv; assay type: ADME, organism-based; details: in vivo
[30] = test system: Lung adenocarcinoma organoid; assay: Anti-tumor activity against Osimertinib-resistant patient (#0085)-derived human Lung adenocarcinoma organoid assessed as inhibition of cell viability measured after 96 hrs relative to control; assay type: functional, Neoplasm
[31] = Drug concentration in lung of BALB-c nude mouse xenografted with human NCI-H1975 cells at 15 mg/kg, iv measured after 30 mins by LC-MS/MS analysis; assay type: ADME, organism-based; details: read-out: Ct
[32] = test system: Osimertinib-resistant HCC827 cell; assay: Downregulation of c-Myc level in human Osimertinib-resistant HCC827 cells in presence of JQ1 by RNA-Seq analysis; assay type: functional, cell-based
[33] = Tmax in BALB/c mouse at 15 mg/kg, po; assay type: ADME, organism-based; details: in vivo
[34] = Toxicity in BALB-c mouse xenografted with human Osimertinib-resistant HCC827 cells assessed as decrease in body weight at 5 mg/kg, iv in presence of JQ1; assay type: organism-based; details: in vivo
[35] = Toxicity in BALB-c nude mouse xenografted with human NCI-H1975 cells assessed as body weight loss at 15 mg/kg, iv administered on every two days; assay type: organism-based; details: in vivo
[36] = target: CDK6/cyclin D1 (Homo sapiens) (UniProt P24385+Q00534); assay: Inhibition of CDK6/Cyclin D1(unknown origin) at 100 nM preincubated for 10 mins followed by substrate/ATP measured after 60 mins by ADP-Glo assay relative to control; assay type: protein-complex assay; details: time 70.0 min
[37] = test system: Osimertinib-resistant NCI-H1975 cell; assay: Selectivity ratio of IC50 for anti-proliferative activity against human Osimertinib-resistant NCI-H1975 cells to IC50 for anti-proliferative activity against human Osimertinib-resistant NCI-H1975 cells in presence of JQ1; assay type: functional
[38] = target: Cyclin-dependent kinase 4/cyclin D1 (Homo sapiens) (UniProt P11802+P24385); assay: Inhibition of CDK4/Cyclin D1 (unknown origin) at 100 nM preincubated for 10 mins followed by substrate/ATP measured after 60 mins by ADP-Glo assay relative to control; assay type: protein-complex assay; details: time 70.0 min

Cyclin-dependent kinase 9 (Homo sapiens), sequence (P50750 whole entry): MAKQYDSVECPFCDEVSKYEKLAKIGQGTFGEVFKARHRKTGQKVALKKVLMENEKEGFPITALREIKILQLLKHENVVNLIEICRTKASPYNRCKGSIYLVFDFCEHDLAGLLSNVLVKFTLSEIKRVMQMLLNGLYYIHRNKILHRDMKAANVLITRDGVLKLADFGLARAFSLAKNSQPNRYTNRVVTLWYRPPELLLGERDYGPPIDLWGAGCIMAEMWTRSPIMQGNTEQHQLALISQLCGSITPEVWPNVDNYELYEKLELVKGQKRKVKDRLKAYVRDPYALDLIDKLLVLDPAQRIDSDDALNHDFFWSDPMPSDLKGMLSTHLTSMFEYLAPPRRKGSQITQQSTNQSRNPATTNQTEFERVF

- IC50 [4]: 30.6 nM
- microsomal CLint [5]: 14.2 µL/min/mg
- AUC(0-inf) [6]: 766 ng·h/mL
- IC50 [8]: 29.7 nM
- AUC(0-t) [9]: 380 ng·h/mL
- inhibition [11]: Active
- inhibition [12]: 17.8%
- half-life [13]: 3.5 h
- inhibition [14]: 97.3%
- inhibition [15]: Dose-dependent-effect
- Vz [16]: 109.3 L/kg
- half-life [17]: 6.7 h
- IC50 [18]: 70 nM
- bioavailability [19]: 25.8%
- inhibition [20]: Active
- IC50 [21]: 4.7 nM
- IC50 [23]: 140 nM
- IC50 [24]: 90 nM
- microsomal CLint [25]: 18.4 µL/min/mg
- IC50 [27]: < 50 nM
- half-life [28]: 0.985 h
- half-life [29]: 1.57 h
- concentration at 0.5 h [31]: 6650 ng/mL
- Tmax [33]: 0.56 h
- inhibition [36]: 33.1%
- inhibition [38]: 25.7%
SMILES: CC(=O)N1CCC(NC(=O)c2ccc3cc2OCCCCCCOc2cc(ccc2F)-c2nc(ncc2F)N3)CC1
- Activity [1]: Active
- inhibition [2]: Active
- Ratio IC50 [3]: 10
- Activity [7]: Non-toxic
- inhibition in vivo at 5 mg/kg [10]: 60%
- Activity [22]: Non-toxic
- IC50 [26]: 31.6 nM
- Imax [30]: >98%
- Activity [32]: Active
- Activity [34]: Non-toxic
- Activity [35]: Non-toxic
- Ratio IC50 [37]: 10
